The values below come from ChEMBL document CHEMBL1147578, “Design, synthesis, and SAR of anthranilamide-based factor Xa inhibitors with improved functional activity” (Bioorg Med Chem Lett, 2004).

Structures are written as SMILES.

As a reminder, the IC50 is the point on the concentration scale where inhibition reaches its midpoint. A low value points to greater potency in that assay. The bioavailability is the share of a dose that reaches the circulation, judged against a reference dose that is usually intravenous. In general, Ki refers to the equilibrium dissociation constant of an inhibitor or competing ligand from its target. A lower Ki goes with a stronger hold on the target. By half-life is commonly meant how long it takes for the measured level to halve. For orientation: clearance means the volume of plasma or blood freed of the substance per unit of time. In general, Inhibition refers to the relative decrease from the control value, in per cent. A higher Inhibition goes with a response far below the control.

One data set addresses Plasminogen (Homo sapiens, UniProt P00747). In words: Inhibitory activity against plasmin.
Data set [1] is described as follows: Oral bioavailability in rat (dose 6 mg/kg). The class given is ADME, organism-based. As to conditions: in vivo.
In data set [2] the target is Vitamin K-dependent protein C (Homo sapiens, UniProt P04070). In words: Inhibitory activity against activated protein C.
The target in another data set is Prothrombin (Homo sapiens, UniProt P00734). In words: Inhibitory activity against thrombin.
Data set [3] addresses T1, Coagulation factor X (Homo sapiens, UniProt P00742). In words: Inhibitory activity against Coagulation factor X.
Data set [4] deals with T1, Coagulation factor X. In words: In vitro inhibitory activity against coagulation factor X.
A further data set concerns the target Plasma kallikrein (Homo sapiens, UniProt P03952). Nature of the data set: Inhibitory activity against kallikrein.
The species named for the next data set is Homo sapiens. In words: Concentration required to double the lag time of maximum thrombin generation in human plasma-based thrombin generation assay. It is filed as functional.
The target of data set [5] is Tissue-type plasminogen activator (Homo sapiens, UniProt P00750). In words: Inhibitory activity against tissue type plasminogen activator.
In a further data set the target is Serine protease 1 (Homo sapiens, UniProt P07477). In words: Inhibitory activity against trypsin.
Data set [6] concerns the target T1, Coagulation factor X. Nature of the data set: In vitro inhibitory activity against Coagulation factor X.
A short description of data set [7]: Oral bioavailability in dog. It is filed as ADME, organism-based, Canis lupus familiaris. As to conditions: in vivo.
Data set [8] is filed under the species Rattus norvegicus. In words: Effective dose required for antithrombotic activity in rat vena cava stasis model. It is filed as functional.
The nature of data set [9]: Half life after intravenous administration was determined in rats at 0.4 mg/kg. To be noted: rat, in vivo.
Data set [10] can be described thus: Oral bioavailability in rats at 6 mg/kg. It is filed as ADME, organism-based. As to conditions: rat, in vivo.
Data set [11] concerns Rattus norvegicus. Nature of the data set: Volume of distribution after intravenous administration of 0.4 mg/kg of dose in rats was determined. To be noted: in vivo.
A short description of data set [12]: Plasma clearance after intravenous administration of 0.4 mg/kg of dose in rats was determined. It is filed as ADME, organism-based. Set-up: dose 0.4 mg/kg, route intravenous. As to conditions: rat.
The species entered for data set [13] is Oryctolagus cuniculus. Nature of the data set: Percent inhibition of thrombus formation in rabbit deep vein thrombosis at 0.83 uM. It is filed as functional.
For data set [14], the species on record is Oryctolagus cuniculus. In words: Percent inhibition of thrombus formation in rabbit deep vein thrombosis at 0.25 uM. It is filed as functional.

Plasma kallikrein, sequence (P03952 20-390 limits assumed): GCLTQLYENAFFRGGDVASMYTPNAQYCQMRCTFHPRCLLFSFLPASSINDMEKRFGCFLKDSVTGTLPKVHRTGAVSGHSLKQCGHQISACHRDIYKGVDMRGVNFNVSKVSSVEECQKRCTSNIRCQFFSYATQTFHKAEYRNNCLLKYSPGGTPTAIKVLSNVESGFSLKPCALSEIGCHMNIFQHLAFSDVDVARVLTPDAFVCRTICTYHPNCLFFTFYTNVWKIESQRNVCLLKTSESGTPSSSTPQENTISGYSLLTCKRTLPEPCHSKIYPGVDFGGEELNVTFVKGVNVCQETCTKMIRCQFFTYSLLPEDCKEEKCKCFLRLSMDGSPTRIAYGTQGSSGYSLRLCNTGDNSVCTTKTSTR
Plasma kallikrein, sequence (P03952 391-638 limits assumed): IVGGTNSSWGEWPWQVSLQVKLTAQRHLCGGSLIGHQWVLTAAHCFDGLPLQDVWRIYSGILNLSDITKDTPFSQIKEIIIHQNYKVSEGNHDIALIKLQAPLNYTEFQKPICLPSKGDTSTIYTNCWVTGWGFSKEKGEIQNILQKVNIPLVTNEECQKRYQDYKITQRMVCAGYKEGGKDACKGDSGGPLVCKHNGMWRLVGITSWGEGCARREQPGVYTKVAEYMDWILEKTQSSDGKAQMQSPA
Plasminogen, sequence (P00747 97-580 limits assumed): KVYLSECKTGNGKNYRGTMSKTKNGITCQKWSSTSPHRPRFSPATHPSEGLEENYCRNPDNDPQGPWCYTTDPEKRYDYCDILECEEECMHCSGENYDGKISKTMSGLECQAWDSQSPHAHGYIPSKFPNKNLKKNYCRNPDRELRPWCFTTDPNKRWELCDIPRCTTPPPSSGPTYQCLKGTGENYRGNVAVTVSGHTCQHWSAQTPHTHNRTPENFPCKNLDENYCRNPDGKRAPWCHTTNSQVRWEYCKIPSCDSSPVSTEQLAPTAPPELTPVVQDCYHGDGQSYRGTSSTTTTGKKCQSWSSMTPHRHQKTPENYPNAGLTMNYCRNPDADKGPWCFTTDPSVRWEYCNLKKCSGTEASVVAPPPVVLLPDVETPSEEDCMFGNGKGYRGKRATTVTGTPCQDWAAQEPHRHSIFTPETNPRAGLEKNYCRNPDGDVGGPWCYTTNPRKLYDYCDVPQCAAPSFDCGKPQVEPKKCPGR
Plasminogen, sequence (P00747 581-810 limits assumed): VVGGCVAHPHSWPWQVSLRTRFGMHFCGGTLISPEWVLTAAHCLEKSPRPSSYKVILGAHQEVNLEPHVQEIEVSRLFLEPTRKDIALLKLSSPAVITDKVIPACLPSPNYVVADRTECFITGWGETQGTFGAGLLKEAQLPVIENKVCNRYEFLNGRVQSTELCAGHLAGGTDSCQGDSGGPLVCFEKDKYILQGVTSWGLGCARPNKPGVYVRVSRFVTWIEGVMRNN
Vitamin K-dependent protein C, sequence (P04070 43-197 limits assumed): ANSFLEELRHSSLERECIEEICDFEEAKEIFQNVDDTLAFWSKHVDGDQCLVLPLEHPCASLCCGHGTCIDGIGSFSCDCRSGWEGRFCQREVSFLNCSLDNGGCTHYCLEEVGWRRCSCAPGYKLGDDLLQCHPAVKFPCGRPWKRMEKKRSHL
Vitamin K-dependent protein C, sequence (P04070 212-461 limits assumed): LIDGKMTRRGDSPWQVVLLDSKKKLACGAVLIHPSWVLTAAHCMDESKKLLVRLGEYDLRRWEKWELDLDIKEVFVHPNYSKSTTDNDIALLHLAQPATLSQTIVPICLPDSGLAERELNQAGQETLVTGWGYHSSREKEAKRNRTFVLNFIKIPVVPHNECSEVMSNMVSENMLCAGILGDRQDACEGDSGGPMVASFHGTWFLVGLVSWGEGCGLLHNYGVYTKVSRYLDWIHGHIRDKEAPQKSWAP
Tissue-type plasminogen activator, sequence (P00750 whole entry): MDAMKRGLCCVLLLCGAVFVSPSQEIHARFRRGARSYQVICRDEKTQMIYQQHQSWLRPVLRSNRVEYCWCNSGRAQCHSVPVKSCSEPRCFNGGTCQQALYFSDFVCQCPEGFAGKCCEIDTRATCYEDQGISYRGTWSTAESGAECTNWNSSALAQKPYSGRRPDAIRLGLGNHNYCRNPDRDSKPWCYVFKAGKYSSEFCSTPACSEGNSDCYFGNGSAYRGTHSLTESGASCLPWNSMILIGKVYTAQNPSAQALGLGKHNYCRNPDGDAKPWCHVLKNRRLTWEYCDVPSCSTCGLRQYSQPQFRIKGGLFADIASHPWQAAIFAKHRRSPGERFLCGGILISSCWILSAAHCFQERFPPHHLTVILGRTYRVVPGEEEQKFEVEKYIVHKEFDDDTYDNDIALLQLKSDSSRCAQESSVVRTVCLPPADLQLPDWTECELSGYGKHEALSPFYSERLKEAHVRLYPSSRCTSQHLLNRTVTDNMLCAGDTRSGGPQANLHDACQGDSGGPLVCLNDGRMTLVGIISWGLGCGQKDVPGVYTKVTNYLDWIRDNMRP
Serine protease 1, sequence (P07477 whole entry): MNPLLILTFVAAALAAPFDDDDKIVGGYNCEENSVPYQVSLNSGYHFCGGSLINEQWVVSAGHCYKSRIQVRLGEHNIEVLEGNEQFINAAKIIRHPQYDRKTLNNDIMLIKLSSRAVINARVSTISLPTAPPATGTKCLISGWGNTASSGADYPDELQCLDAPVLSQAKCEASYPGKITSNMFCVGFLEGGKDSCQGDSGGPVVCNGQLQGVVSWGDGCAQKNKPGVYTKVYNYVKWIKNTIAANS
T1 sequence (P00742 41-179 limits assumed): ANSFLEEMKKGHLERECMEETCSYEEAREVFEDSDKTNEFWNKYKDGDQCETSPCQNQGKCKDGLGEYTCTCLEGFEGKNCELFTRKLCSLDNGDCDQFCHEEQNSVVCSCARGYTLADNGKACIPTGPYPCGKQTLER
T1 sequence (P00742 235-488 limits assumed): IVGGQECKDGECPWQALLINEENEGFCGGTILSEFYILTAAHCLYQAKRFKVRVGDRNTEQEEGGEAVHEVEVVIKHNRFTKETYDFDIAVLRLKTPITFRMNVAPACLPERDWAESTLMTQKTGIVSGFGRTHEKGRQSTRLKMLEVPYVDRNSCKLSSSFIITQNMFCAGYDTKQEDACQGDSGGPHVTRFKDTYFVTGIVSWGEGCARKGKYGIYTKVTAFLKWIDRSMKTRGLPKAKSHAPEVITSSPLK

Regarding `CN(C)NCc1ccc(C(=O)Nc2ccc(Cl)cc2C(=O)Nc2ccc(Cl)cn2)cc1`, the IC50 at Plasminogen is over 11000 nM; in data set [2], over 11000 nM; at Prothrombin it was over 11000 nM; at Coagulation factor X [4], 0.9 nM; on Plasma kallikrein it was 640 nM; in data set [5], over 11000 nM. For the same compound, the half-inhibitory concentration (IC50) at Serine protease 1 is over 11000 nM. For the same compound, in [1], the bioavailability was 4%. For the same compound, the inhibition constant Ki at Coagulation factor X [3] came out at 0.3 nM. This compound had an Activity in the data set filed under Homo sapiens of 1.5 µM.
Consider `C[N+](C)(C)Cc1ccc(C(=O)Nc2ccc(Cl)cc2C(=O)Nc2ccc(Cl)cn2)cc1`, for which the concentration for half-maximal inhibition (IC50) was over 11000 nM against Plasminogen; over 11000 nM in [2]; over 11000 nM on Prothrombin; 0.8 nM against Coagulation factor X [4]; 130 nM at Plasma kallikrein; over 11000 nM in data set [5]. Besides, at Serine protease 1, the half-inhibitory concentration (IC50) is over 11000 nM. In [1], this compound displayed a bioavailability of under 1%. Besides, the Activity in the data set filed under Homo sapiens was determined as 0.3 µM. Also, the affinity at Coagulation factor X [6] corresponds to a Ki of 1 nM.
For the compound `C/N=C(/N)N(C)Cc1ccc(C(=O)Nc2ccc(Cl)cc2C(=O)Nc2ccc(Cl)cn2)cc1`, the IC50 was over 11000 nM on Plasminogen; over 11000 nM in [2]; over 11000 nM against Prothrombin; 0.7 nM against Coagulation factor X [4]; 790 nM on Plasma kallikrein; over 11000 nM in data set [5]. The compound further came in with a half-maximal inhibitory concentration (IC50) against Serine protease 1 of over 11000 nM. This compound also showed an Activity in the data set listed under Homo sapiens of 0.79 µM. On Coagulation factor X [6], this compound returned a Ki of 0.2 nM.
`N=C1NCCN1Cc1ccc(C(=O)Nc2ccc(Cl)cc2C(=O)Nc2ccc(Cl)cn2)cc1`: the 50% inhibitory concentration (IC50) is over 11000 nM at Plasminogen; over 11000 nM in data set [2]; over 11000 nM against Prothrombin; 1.5 nM against Coagulation factor X [4]; 210 nM against Plasma kallikrein; over 11000 nM in data set [5]. This compound registered an IC50 against Serine protease 1 of over 11000 nM. In addition, the bioavailability in [1] is under 1%. The compound also came in with an Activity in the data set filed under Homo sapiens of 0.58 µM. Further, at Coagulation factor X [6], the inhibitory constant (Ki) is 0.5 nM.
With `COc1cc(Cl)cc(C(=O)Nc2ccc(Cl)cn2)c1NC(=O)c1scc(CN(C)C2=NCCO2)c1Cl`, in data set [7], the bioavailability came out at 40%. Besides, the ED50 in the data set filed under Rattus norvegicus [8] turned out to be 800 nM.
`CN(C)Cc1ccc(C(=O)Nc2ccc(Cl)cc2C(=O)Nc2ccc(Cl)cn2)cc1`: the half-inhibitory concentration (IC50) on Plasminogen is over 11000 nM; in data set [2], over 11000 nM; against Prothrombin it was over 11000 nM; on Plasma kallikrein, 500 nM; in [5], over 11000 nM; against Serine protease 1 it was over 11000 nM. The half-life in data set [9] was 7.5 h. The same compound returned a bioavailability in [10] of 100%. In the data set with Rattus norvegicus [11], this compound yielded a Volume of distribution of 32.9 L/kg. Also, in the data set filed under Homo sapiens, the Activity amounted to 3.2 µM. Besides, the clearance in [12] turned out to be 20.6 mL/min/kg.
`N=C1OCCN1Cc1ccc(C(=O)Nc2ccc(Cl)cc2C(=O)Nc2ccc(Cl)cn2)cc1`: the Inhibition is 40% in the data set listed under Oryctolagus cuniculus [13] and 25% in the data set filed under Oryctolagus cuniculus [14]. In addition, the IC50 at Plasminogen is over 11000 nM; in data set [2], over 11000 nM; on Prothrombin, over 11000 nM; at Plasma kallikrein, 560 nM; in data set [5], over 11000 nM; against Serine protease 1 it was over 11000 nM. Also, the bioavailability in [1] turned out to be 44%. The half-life in [9] was 8.5 h. The Volume of distribution in the data set with Rattus norvegicus [11] was found to be 13.6 L/kg. The Activity in the data set filed under Homo sapiens worked out at 0.56 µM. Besides, in [12], the clearance stood at 18.3 mL/min/kg.
Take `CN1CCN=C1N(C)Cc1ccc(C(=O)Nc2ccc(Cl)cc2C(=O)Nc2ccc(Cl)cn2)cc1`: the half-inhibitory concentration (IC50) on Plasminogen is over 11000 nM; in [2] it was over 11000 nM; against Prothrombin, over 11000 nM; against Coagulation factor X [4], 0.3 nM; against Plasma kallikrein, 300 nM; in data set [5], over 11000 nM. In addition, at Serine protease 1, the IC50 is over 11000 nM. In [1], this compound returned a bioavailability of under 1%. This compound also had an Activity in the data set filed under Homo sapiens of 0.3 µM. On Coagulation factor X [6], this compound showed a Ki of 0.3 nM.
With `CN(Cc1ccc(C(=O)Nc2ccc(Cl)cc2C(=O)Nc2ccc(Cl)cn2)cc1)C(=N)N`, the half-inhibitory concentration (IC50) is over 11000 nM on Plasminogen; over 11000 nM in data set [2]; over 11000 nM at Prothrombin; 1 nM on Coagulation factor X [4]; 380 nM against Plasma kallikrein; over 11000 nM in [5]. The same compound had an IC50 on Serine protease 1 of over 11000 nM. For the same compound, in data set [1], the bioavailability was under 1%. The Activity in the data set filed under Homo sapiens stood at 0.38 µM. Also, the inhibitory constant (Ki) at Coagulation factor X [6] worked out at 0.1 nM.
